Common to all, as to assay type: physicochemical
A short description of one data set: Water solubility. Conditions: 25 °C. Here is the method:
“Water solubility” means a measure of the maximum possible concentration of a drug dissolved in water. The water temperature may be specified; in an embodiment water solubility is determined at 25 Deg. C. Units of measurement of water solubility are typically mass/volume, such as mg/ml. […] C.; preferably less than or equal to about 0.1 mg/ml at 25 Deg. […] C.

A short description of data set [1]: XRD amorphous stability of dried samples on storage. Conditions: storage 3 month and 1 year, nanosized sample dried by lyophilization, FIGS. 1 and 2.
Data set [2] can be described thus: DSC amorphous stability (recrystallization) on storage at 25 Deg C. Conditions: FIG. 3; for crystallinity: DSC. Here is the method: The amorphous state of the amorphous drug core is determined by subjecting a population of nanoparticles that comprise one or more nanoparticles that comprise the recited amorphous drug core to differential scanning calorimetry (DSC). In an embodiment, a DSC method according to the invention used a Perkin-Elmer DSC-7 or a Diamond DSC calorimeter applied for the measurement of specific transition temperatures of tested samples. Thus, the glass transition (Tg), melting (Tm) and crystallization (Tc) temperatures were measured for each sample, according to the PN-EN ISO 11357-1:2002 (ISO 11357-1:1997), ISO 11357-2:1999 and ISO 11357-3:1999 standards, at the rate of temperature change of 10 Deg C./min. The instrument was calibrated using indium, tin and zinc certified reference materials (CRMs)
The amorphous state of the amorphous drug core, as measured by DSC is expressed as a weight fraction of the weight of amorphous material in the amorphous drug core to the total weight of the amorphous drug core, expressed as an average value across the population of nanoparticles being measured. For instance, if a population of nanoparticles was measured using DSC, and the amorphous state was determined to be a particular value for the population, that value would be considered the average amorphous state for each nanoparticle within the population. An inventive amorphous drug core may contain a small amount of crystalline drug.
“Amorphous stability” means a measure of how much a material changes in its structure from being amorphous to being crystalline under defined conditions and a set timeframe. […] For instance, an amorphous material that is initially 98% w/w amorphous is considered amorphously stable according to the invention if, at the end of 6 months testing at 25 degree C., the material is at least 88% w/w amorphous. The amorphous state of a material according to the invention is determined using a DSC method as detailed above and elsewhere herein.

Broadly, the solubility is the concentration that dissolves in the medium under given conditions. A higher solubility goes with a readily soluble substance. For `O=C(NN1CCCCC1)c1nn(-c2ccc(Cl)cc2Cl)c2c1CCC/C2=C\c1ccc(F)cc1` [COMPOUND 1], the solubility in the data set “Water solubility” is no more than 0.2 ng/mL.
For the compound `O=C(NN1CCCCC1)c1nn(-c2ccc(Cl)cc2Cl)c2c1CCC/C2=C\c1ccc(F)cc1` [bulk amorphous COMPOUND 1], the XRD amorphous stability entry in data set [1] is on record as “XRD amorphous stability can be achieved up to 1 year”. For the same compound, the crystallinity was 0.44% in data set [2] (4 month time point), 1.39% in data set [2] (5 month time point) and 10.54% in data set [2] (6 month time point). Also, the “storage time after which recrystallization was detectable by DSC” value in data set [2] (storage at 25 Deg C) amounted to 4 month.
